Test results taken from paper PMC9321231.

What was measured:
[1] = target: T1, human neutrophil elastase (HNE) (Homo sapiens, UniProt P08246); assay: Kinetic analysis of the inhibition of human neutrophil elastase (Lineweaver-Burk, Dixon, secondary plots); assay type: biochemical; conditions: for Inhibition Type: Lineweaver-Burk and Dixon analysis; for Kis (enzyme-substrate-inhibitor dissociation constant): secondary plot of intercept versus inhibitor concentration; for Ki: secondary plot of slope versus inhibitor concentration, read-out: Ki (enzyme-inhibitor dissociation constant)
T1 sequence (P08246 30-267): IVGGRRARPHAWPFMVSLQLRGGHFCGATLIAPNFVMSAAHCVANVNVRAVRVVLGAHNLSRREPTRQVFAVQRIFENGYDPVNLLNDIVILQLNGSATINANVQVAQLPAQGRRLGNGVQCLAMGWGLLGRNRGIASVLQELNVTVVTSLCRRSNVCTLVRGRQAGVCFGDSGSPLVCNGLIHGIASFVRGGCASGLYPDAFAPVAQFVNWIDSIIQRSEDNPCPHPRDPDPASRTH
Method: Next, kinetic analysis of the mechanism of inhibition of human neutrophil elastase by thiazoles 3a–3j was determined using double-reciprocal plots of Lineweaver-Burk plots and Dixon analysis.
The first model is one in which the inhibitor binds better to the free enzyme (competitive mechanism), while the second model is one in which the inhibitor binds better to the enzyme-substrate complex (non-competitive mechanism). Next the secondary plots of slope versus concentration of test compounds were plotted to determine the enzyme-inhibitor dissociation constants Ki, and similarly as was used to determine enzyme-substrate-inhibitor dissociation constants Kis, the secondary plots of intercept versus concentration of tested compounds were plotted.
Kinetic studies were conducted in the presence of different concentrations of substrate (5, 25, 50 and 100 µM) and test compounds (in the range of 0–500 nM). The reaction conditions were the same as in the HNE inhibition assay and the reaction was monitored for 10 min at 25 °C with the same Ex an Em wavelengths. By Lineweaver–Burk plots, kinetic values such as the Michaelis–Menten constants and maximum velocity were determined. Next, two inhibition constants for inhibitor binding with free enzyme or enzyme–substrate complex (Ki and Kis) were obtained by plotting the secondary plot of the slopes of the determined straight lines or vertical intercept (1/Vmax) versus inhibitor concentration.

[2] = system: lung carcinoma (A549) cells; assay: Antiproliferative assay (MTT or SRB), A549; assay type: cell-based, human; conditions: for IC50: Homo sapiens, A549, A-549, read-out: IC50 ± SD, antiproliferative activity; for Calculated Selectivity Index SI: IC50 Balb/3T3 / IC50 A-549
Method: Cell preparation, an in vitro antiproliferative assay, and MTT and SRB cytotoxic tests were performed according to the literature.

A549 cells = assay: Cell cycle analysis, PI staining flow cytometry; assay type: cell-based, human; conditions: 48 h, control 6.20 ± 0.23%
Method: The rate of cell apoptosis and necrosis was detected using Annexin V-FITC/PI double staining. […] Compound 3e turned out to be a stronger inducer of apoptosis than 3c. […] In turn, compound 3c induced apoptosis only at the concentrations of 10 and 20 µM, and the percentage of cells undergoing apoptosis increased from 6.05 ± 0.17% in the control to 10.14 ± 0.76% and 14.67 ± 0.68%, respectively (Figure 4B). Moreover, compound 3e at a concentration of 5 µM induced apoptosis to a similar level as cisplatin (CDDP) used at a concentration of 4 µM. To identify the mechanism of the 3c- and 3e-induced apoptosis in the A549 cells, the activation of effector caspase-3 was evaluated by flow cytometry. […] To further explore the antiproliferative activity of compounds 3c and 3e, the influence of both compounds on the distribution of cell cycle phases in the A549 cells was analyzed. […] The G2 checkpoint prevents cells from entering mitosis when DNA is damaged, providing an opportunity for repair and stopping the proliferation of damaged cells. […] Apoptosis is a crucial process involved in the regulation of tumor formation and in the treatment response; therefore, cancer therapy has been linked to activation of the apoptosis signal transduction pathway. Caspase-3, an executioner caspase, plays an important role in apoptosis and becomes a primary target for cancer treatment.
The fluorescence-activated cell sorting (FACS) technique was employed to analyze the 3c- and 3e-induced cell death, the activation of executive caspase-3, and the cell cycle in the A549 cells. The quantitative analysis of apoptosis and necrosis was performed using an Annexin V-fluorescein isothiocyanate (FITC)/ propidium iodide (PI) apoptosis kit (BD Biosciences, BD Pharmingen™, San Jose, CA, USA) as previously described. To determine the active form of caspase-3, the A549 cells were plated into 6-well plates at a density of 6 × 10^5 cells/well. The next day, the growth medium was replaced with a fresh one supplemented with compound 3c or 3e (10, 20, and 40 µM) or the DMSO vehicle (0.1%; control cells). After 48-h incubation, the samples were harvested and the level of active caspase-3 was determined using the phycoerythrin (PE) Active Caspase-3 Apoptosis Kit (BD Pharmingen™) according to the manufacturer’s instructions. The stained cells were analyzed using FACS Calibur, and data were analyzed using Cell Quest Pro Version 6.0 (BD Biosciences, San Jose, CA, USA) for the Macintosh operating system. The results were calculated as a percent of cells with active caspase-3 among all the analyzed cells. The cell cycle analysis was performed by determination of the DNA contents on the basis of PI staining as previously described.
Figure 6 Effect of compounds 3c and 3e on cell cycle distribution in A549 cells. After the treatment with the indicated concentrations of compounds 3c and 3e for 48 h, the cells were stained with propidium iodide and analyzed by flow cytometry. (A) Representative DNA histograms of A549 cells treated with compounds 3c and 3e. (B,C) Statistical analysis of the percentages of A549 cells in the sub-G1, G0/G1, S, and G2/M phases after treatment with compounds 3c and 3e, respectively. Data are expressed as means ± SD from three independent experiments. ** p < 0.01 and *** p < 0.001 in comparison to the control; one-way ANOVA followed by Tukey’s post hoc test.

[3] = Spontaneous hydrolysis (chemical stability) in phosphate buffer, spectrophotometric; assay type: physicochemical; conditions: 0.05 M phosphate buffer, pH 7.3, 25 °C; for half-life: t1/2 = 0.693/k'
Method: Testing the stability of new drugs is of great importance for obtaining a good therapeutic profile as well as the safety of their future use. Degradation impurities can reduce drug efficacy and generate undesirable side effects.
The kinetics hydrolysis of the compounds was evaluated at 25 °C in 0.05 M phosphate buffer, pH 7.3, by measuring changes in absorbance spectra during incubation using a T60U spectrophotometer (PG Instruments). The absorbance (At) at characteristic absorption maxima for each compound was measured at 10 min intervals until there was no further decrease in absorbance (Aꝏ). Using these measurements, semilogarithmic plots of the dependence of log(At–Aꝏ) on time were prepared, and k’ values were determined from the slope of these plots according to first order reaction kinetics. Half-conversion times were calculated using equation: t1/2 = 0.693/k’.

| SMILES | Inhibition Type [1] | Kis (enzyme-substrate-inhibitor dissociation constant) [1] [nM] | Ki [1] [µM] | IC50 [2] [µM] | Calculated Selectivity Index SI [2] | G2/M fraction of A549 cells (A549 cells; 5 µM) [%] | G2/M fraction of A549 cells (A549 cells; 10 µM) [%] | G2/M fraction of A549 cells (A549 cells; 20 µM) [%] | k, rate constant of spontaneous hydrolysis [3] [min⁻¹] | half-life [3] [min] |
| --- | --- | --- | --- | --- | --- | --- | --- | --- | --- | --- |
| CCC1(CC)C(=O)N(c2ccc(-c3csc(Nc4cc(OC)c(OC)c(OC)c4)n3)cc2)C1=O [3c, 3,3-Diethyl-1-(4-(2-(3,4,5-trimethoxyphenylamino)thiazol-4-yl)phenyl)azetidine-2,4-dione] | mixed type I inhibition | 99.50 | 0.0661 | 6.4 ± 0.08 | 1.16 | 9.69 ± 0.77 | 15.68 ± 5.31 | 29.04 ± 1.09 | 0.015 | 46.2 |
| CCC1(CC)C(=O)N(c2ccc(-c3csc(Nc4ccc(S(N)(=O)=O)cc4)n3)cc2)C1=O [3e, 4-(4-(4-(3,3-Diethyl-2,4-dioxoazetidin-1-yl)phenyl)thiazol-2-ylamino)benzenesulfo-namide] | mixed type I inhibition | 240.00 | 0.0358 | 6.32 ± 0.89 | 1.04 | 9.08 ± 0.69 | 10.83 ± 1.06 | 35.78 ± 0.46 | 0.0175 | 39.6 |
